Earlier results on two molecules are cited in patent publication US9434994B2, “Methods for prediction of clinical outcome to epidermal growth factor receptor inhibitors by non-small cell lung cancer patients” (The Regents of the University of Colorado, a body corporate, priority 2004, dated 2016).

For one data set, the system named is advanced BAC patients. As to conditions: cited from earlier work.
Data set [1] has as its system chemotherapy resistant NSCLC patients. As to conditions: single agent; cited from earlier work.
Another data set relates to NSCLC patients. The conditions noted are these: erlotinib versus placebo, second or third line; cited from earlier work.

As for `CC(=O)O[C@H]1C(=O)[C@@]2(C)[C@H]([C@H](OC(=O)c3ccccc3)[C@]3(O)C[C@H](OC(=O)[C@H](O)[C@@H](NC(=O)c4ccccc4)c4ccccc4)C(C)=C1C3(C)C)[C@]1(OC(C)=O)CO[C@@H]1C[C@@H]2O` [paclitaxel], the Median Survival in the data set on advanced BAC patients was 12 months.

With `C#Cc1cccc(Nc2ncnc3cc(OCCOC)c(OCCOC)cc23)c1` [erlotinib], in data set [1], the response rates entry is reported as “about 10%”. Besides, in the data set with NSCLC patients, the “Hazard Ratio, survival” value is recorded as 0.73.
